From patent US20210220370A1, “SELECTIVE HDAC8 INHIBITORS AND THEIR USES” (HOCHSCHULE DARMSTADT, priority 2015, published 2021)
Read-outs that look alike come from different tables or passages of the source.

Experiments:
[1] = tested on: uterine leiomyosarcoma cell line SKUT-1; assay: Growth inhibition of cancer cell line, resazurin assay; assay type: cell-based, Human; conditions: Table 2, resazurin assay
[2] = tested on: breast cancer cell line MCF-7; assay: as above; assay type: cell-based, Human; conditions: Table 2, resazurin assay
[3] = tested on: T cell leukemia cell line JURKAT; assay: as above; conditions: for GI50: read-out: GI50 JURKAT
Protocol: The following tumor cell lines were used: • Human uterine leiomyosarcoma cell line SKUT-1 (ATCC® HTB114™) • Human T cell leukemia cell line JURKAT (ATCC® TIB152™) • Human breast cancer cell line MCF-7 (ATCC® HTB22™)
Cells were cultured in Dulbecco's modified Eagle's medium (DMEM) supplemented with 10% FCS.

HDAC7 = biological target: T1, HDAC7 (Homo sapiens, UniProt Q8WUI4); assay: HDAC7 colorimetric assay, substrate Boc-Lys(TFA)-AMC
T1 sequence (Q8WUI4 1-952): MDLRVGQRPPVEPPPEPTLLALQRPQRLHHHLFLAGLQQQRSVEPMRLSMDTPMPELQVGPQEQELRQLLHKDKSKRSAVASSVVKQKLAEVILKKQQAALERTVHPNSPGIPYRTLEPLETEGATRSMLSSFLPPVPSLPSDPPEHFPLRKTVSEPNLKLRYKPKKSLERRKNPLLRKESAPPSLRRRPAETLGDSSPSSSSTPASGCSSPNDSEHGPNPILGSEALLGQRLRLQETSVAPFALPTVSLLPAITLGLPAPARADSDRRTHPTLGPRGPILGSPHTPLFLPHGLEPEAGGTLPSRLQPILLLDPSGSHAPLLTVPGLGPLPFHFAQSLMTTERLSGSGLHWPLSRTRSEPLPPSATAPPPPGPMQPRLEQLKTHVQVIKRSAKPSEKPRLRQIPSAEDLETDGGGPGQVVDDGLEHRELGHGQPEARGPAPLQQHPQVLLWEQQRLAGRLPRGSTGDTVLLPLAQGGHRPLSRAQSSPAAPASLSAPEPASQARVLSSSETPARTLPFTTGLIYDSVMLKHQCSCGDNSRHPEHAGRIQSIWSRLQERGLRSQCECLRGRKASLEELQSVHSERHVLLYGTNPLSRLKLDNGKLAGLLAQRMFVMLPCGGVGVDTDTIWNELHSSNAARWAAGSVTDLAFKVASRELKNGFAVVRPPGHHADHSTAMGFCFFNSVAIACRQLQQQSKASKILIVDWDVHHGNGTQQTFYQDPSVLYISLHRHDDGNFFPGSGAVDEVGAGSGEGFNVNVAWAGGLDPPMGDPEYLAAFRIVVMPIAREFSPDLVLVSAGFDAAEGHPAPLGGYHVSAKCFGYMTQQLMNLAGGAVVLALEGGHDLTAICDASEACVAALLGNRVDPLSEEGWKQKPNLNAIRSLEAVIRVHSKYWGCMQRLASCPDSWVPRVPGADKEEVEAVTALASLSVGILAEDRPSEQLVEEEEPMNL

HDAC2 = HDAC2 (Homo sapiens, UniProt Q92769); assay: HDAC2 colorimetric assay, substrate Boc-Lys(Ac)-AMC; assay type: biochemical
HDAC1 = HDAC1 (Homo sapiens, UniProt Q13547); assay: HDAC1 colorimetric assay, substrate Boc-Lys(Ac)-AMC
Protocol: 1 nM of HDAC1 was incubated with increasing concentrations of the respective compound for 30 minutes at 30° C. The reaction was initiated by addition of 50 μM of the substrate Boc-Lys(Ac)-AMC. After an incubation of 60 minutes the reaction was stopped by addition of 20 μM SAHA and the deacetylated substrate was converted into a fluorescent product by the addition of trypsin.

HDAC5 = HDAC5 (Homo sapiens, UniProt Q9UQL6); assay: HDAC5 colorimetric assay, substrate Boc-Lys(TFA)-AMC
HDAC6 = biological target: T2, HDAC6 (Homo sapiens, UniProt Q9UBN7); assay: HDAC6 colorimetric assay, substrate Boc-Lys(Ac)-AMC; assay type: biochemical
T2 sequence (Q9UBN7 1-1215): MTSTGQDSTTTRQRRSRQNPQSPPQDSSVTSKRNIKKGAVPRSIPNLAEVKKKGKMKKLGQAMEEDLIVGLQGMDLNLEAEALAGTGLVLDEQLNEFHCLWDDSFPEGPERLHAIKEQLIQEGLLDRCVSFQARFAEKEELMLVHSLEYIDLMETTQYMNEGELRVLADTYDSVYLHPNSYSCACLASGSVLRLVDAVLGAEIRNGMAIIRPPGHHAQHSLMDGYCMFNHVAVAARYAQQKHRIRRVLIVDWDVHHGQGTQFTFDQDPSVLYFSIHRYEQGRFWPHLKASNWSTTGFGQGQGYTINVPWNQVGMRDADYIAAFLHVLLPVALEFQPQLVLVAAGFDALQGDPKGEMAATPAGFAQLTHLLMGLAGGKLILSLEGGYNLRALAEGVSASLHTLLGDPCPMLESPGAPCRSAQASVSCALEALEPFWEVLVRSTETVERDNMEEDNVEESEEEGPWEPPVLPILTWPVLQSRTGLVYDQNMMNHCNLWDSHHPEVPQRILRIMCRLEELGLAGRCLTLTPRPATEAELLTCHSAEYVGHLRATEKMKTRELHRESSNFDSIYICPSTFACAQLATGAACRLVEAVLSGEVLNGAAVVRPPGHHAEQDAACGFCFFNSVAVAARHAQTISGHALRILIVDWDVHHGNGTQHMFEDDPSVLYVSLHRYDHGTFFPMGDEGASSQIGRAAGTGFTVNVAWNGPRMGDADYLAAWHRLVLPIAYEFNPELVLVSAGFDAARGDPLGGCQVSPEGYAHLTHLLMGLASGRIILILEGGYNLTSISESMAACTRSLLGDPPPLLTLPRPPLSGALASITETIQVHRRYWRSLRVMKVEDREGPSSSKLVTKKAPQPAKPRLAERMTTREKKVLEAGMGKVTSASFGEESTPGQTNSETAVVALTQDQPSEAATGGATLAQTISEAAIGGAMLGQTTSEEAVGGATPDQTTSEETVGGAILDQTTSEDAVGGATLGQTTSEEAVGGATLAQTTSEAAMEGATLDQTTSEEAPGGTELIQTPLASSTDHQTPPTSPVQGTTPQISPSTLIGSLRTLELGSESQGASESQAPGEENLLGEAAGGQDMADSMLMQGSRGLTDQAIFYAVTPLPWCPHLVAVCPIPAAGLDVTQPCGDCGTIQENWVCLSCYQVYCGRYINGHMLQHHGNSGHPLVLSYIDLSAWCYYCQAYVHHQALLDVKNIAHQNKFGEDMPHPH

HDAC8 = biological target: T3, HDAC8 (Homo sapiens, UniProt Q9BY41); assay: HDAC8 colorimetric assay, substrate Boc-Lys(TFA)-AMC
T3 sequence (Q9BY41 1-377): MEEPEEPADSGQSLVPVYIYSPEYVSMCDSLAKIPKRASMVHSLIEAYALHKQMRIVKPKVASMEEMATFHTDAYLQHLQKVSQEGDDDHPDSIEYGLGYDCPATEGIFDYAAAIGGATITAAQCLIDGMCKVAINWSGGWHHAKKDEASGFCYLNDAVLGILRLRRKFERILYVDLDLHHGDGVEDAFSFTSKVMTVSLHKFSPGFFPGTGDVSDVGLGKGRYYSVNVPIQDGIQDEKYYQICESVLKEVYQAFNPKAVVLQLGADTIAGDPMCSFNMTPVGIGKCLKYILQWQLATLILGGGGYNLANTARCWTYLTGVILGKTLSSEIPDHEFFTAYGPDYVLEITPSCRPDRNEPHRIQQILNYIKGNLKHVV
Protocol: 1 nM of HDAC4 was incubated with increasing concentrations of the respective compound for 30 minutes at 30° C. The reaction was initiated by addition of 20 μM of the substrate Boc-Lys(trifluoracetyl)-AMC. After an incubation of 60 minutes the reaction was stopped by addition of 20 μM SAHA and the deacetylated substrate was converted into a fluorescent product by the addition of trypsin.

HDAC4 = HDAC4 (Homo sapiens, UniProt P56524); assay type: biochemical; conditions: Table 1
HDAC3 = HDAC3 (Homo sapiens, UniProt O15379); assay: HDAC3 colorimetric assay, substrate Boc-Lys(Ac)-AMC; assay type: biochemical; conditions: Table 1
[4] = IC50 for HDAC7, FIG. 3, 20 μM Boc-Lys(TFA)-AMC
[5] = IC50 for HDAC1, FIG. 3, 50 μM Boc-Lys(Ac)-AMC
[6] = IC50 for HDAC8, FIG. 3, 20 μM Boc-Lys(TFA)-AMC

Sequence of HDAC5 (Q9UQL6 whole entry): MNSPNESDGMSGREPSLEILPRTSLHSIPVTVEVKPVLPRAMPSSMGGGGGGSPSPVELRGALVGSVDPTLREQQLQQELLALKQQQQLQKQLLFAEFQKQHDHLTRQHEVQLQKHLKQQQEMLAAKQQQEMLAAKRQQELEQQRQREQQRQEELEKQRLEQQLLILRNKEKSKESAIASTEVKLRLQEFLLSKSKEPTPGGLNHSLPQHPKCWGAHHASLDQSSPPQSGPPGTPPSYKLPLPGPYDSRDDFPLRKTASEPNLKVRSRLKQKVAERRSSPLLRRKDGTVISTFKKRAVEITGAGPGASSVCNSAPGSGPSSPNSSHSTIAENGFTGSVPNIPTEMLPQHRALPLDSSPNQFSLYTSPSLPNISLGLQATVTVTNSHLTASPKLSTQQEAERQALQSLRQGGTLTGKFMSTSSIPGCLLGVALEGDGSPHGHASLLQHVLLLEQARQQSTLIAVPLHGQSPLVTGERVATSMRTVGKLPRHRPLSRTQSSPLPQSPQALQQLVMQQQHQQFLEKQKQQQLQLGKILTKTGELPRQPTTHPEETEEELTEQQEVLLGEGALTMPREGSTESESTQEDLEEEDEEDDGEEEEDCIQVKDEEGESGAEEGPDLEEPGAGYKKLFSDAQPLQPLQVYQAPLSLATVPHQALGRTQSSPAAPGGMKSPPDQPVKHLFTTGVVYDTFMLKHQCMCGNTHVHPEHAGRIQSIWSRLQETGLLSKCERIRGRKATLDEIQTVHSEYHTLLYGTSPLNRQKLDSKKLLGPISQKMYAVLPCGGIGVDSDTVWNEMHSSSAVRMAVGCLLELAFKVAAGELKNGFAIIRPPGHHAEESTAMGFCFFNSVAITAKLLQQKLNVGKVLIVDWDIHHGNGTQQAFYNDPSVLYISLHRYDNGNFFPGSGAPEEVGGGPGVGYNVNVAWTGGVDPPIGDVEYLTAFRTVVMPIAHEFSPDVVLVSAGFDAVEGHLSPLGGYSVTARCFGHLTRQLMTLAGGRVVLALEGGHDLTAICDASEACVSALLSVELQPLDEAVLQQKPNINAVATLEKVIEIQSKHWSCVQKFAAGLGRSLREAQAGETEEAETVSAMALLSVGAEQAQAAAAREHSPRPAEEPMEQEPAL
Sequence of HDAC3 (O15379 whole entry): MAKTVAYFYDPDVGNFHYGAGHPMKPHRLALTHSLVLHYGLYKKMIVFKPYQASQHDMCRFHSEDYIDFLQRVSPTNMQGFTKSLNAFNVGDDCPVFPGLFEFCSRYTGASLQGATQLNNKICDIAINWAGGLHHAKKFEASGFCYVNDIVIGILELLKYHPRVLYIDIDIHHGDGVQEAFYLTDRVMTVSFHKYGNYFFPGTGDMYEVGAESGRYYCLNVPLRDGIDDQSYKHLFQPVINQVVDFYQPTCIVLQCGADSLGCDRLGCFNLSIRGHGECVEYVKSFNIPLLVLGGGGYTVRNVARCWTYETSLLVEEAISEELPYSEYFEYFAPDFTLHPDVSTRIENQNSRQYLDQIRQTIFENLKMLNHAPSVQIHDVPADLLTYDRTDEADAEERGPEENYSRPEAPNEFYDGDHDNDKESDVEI
Sequence of HDAC3 (Q9Y618 395-489 partner limits assumed): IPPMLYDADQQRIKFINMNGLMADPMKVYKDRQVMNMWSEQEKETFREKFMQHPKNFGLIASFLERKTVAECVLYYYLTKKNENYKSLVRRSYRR
Sequence of HDAC1 (Q13547 whole entry): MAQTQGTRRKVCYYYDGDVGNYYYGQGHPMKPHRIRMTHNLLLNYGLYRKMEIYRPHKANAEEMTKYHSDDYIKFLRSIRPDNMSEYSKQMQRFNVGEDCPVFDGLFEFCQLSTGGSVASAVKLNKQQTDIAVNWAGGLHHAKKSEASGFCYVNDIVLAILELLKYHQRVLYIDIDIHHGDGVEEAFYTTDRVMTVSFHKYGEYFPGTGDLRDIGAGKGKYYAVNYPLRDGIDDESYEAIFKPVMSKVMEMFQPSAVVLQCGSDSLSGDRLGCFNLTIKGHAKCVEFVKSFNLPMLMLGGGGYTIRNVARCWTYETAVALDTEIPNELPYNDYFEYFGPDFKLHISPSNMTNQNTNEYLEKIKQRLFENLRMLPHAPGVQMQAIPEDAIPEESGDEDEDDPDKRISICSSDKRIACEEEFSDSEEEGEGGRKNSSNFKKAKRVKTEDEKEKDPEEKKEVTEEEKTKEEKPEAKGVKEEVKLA
Sequence of HDAC4 (P56524 whole entry): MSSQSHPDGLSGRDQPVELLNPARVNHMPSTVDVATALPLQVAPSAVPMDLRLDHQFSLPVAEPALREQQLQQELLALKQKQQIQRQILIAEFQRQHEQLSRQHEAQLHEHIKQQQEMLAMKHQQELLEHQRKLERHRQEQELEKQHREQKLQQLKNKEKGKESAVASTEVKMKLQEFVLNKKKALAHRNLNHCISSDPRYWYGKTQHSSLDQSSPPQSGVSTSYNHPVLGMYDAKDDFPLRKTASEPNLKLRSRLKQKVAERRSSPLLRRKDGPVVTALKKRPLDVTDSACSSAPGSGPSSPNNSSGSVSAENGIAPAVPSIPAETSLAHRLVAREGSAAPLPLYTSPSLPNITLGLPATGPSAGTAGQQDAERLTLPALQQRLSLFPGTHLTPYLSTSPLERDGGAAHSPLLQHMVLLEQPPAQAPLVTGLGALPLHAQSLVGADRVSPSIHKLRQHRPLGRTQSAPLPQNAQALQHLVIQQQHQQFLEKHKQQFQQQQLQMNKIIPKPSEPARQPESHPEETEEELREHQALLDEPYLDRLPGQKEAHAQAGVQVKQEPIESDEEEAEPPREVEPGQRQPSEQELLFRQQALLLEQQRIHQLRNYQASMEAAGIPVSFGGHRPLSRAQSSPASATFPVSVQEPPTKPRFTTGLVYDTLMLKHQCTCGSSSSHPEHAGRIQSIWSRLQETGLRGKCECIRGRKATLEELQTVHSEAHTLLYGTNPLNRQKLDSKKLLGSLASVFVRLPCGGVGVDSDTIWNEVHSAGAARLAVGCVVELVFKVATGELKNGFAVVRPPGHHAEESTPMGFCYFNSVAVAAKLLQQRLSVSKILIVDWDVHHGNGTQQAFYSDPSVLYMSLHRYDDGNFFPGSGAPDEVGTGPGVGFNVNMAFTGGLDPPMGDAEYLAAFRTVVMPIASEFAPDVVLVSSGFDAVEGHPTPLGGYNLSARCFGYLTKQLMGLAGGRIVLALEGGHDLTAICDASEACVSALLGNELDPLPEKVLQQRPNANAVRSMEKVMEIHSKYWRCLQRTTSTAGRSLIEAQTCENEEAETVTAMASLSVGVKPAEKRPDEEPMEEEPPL
Sequence of HDAC2 (Q92769 whole entry): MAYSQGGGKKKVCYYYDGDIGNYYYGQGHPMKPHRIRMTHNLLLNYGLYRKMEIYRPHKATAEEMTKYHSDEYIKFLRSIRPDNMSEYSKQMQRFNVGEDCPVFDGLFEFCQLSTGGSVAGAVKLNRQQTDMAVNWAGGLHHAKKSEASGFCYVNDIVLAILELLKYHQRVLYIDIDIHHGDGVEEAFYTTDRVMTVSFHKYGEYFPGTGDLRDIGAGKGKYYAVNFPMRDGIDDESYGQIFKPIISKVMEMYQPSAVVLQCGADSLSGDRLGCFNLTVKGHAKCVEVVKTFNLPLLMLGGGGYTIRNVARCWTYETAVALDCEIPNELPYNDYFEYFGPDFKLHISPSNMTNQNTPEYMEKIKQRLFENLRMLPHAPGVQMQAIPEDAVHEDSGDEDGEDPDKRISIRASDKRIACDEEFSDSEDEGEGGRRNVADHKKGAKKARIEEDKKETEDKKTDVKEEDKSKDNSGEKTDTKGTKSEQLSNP

## O=C(CCCCCCC(=O)Nc1ccccc1)NO [Compound 1, Vorinostat, reference compound]
[1]; Homo sapiens, SK-UT-1
  GI50: 5.4 ± 0.4 µM
[2]; Homo sapiens, MCF7
  GI50: 3.7 ± 0.4 µM
[3]; Homo sapiens, Jurkat
  GI50: 3.7 ± 0.4 µM

## COc1ccc(Cn2ccc3ccc(C(=O)NO)cc32)cc1 [Compound 6, PCI-34051, reference compound]
[1]; read-out: GI50 SK-UT-1
  GI50: 136 ± 62 µM
[2]; read-out: GI50 MCF7
  GI50: 65 ± 18 µM
[3]; Table 2, resazurin assay
  GI50: 40 ± 4 µM

## N=C1Sc2ccccc2C2=NCCCN12 [Compound 13a, 3,4-Dihydrobenzo[e]Pyrimido[1,2-c][1,3]Thiazin-6(2H)-Imine]
[1]; Homo sapiens, SK-UT-1
  GI50: 736 ± 659 µM
HDAC7; read-out: IC50 HDAC7, Table 1
  IC50: 0.22 ± 0.02 µM
HDAC2
  IC50: 32 ± 1.5 µM
HDAC1; IC50 HDAC1, Table 1
  IC50: 3.6 ± 0.8 µM
HDAC5; read-out: IC50 HDAC5, Table 1
  IC50: 0.11 ± 0.01 µM
HDAC6
  IC50: 6.7 ± 0.8 µM
[2]; Homo sapiens, MCF7
  GI50: > 1000 µM
[3]
  GI against JURKAT cells: 63 µM
[3]; Homo sapiens, Jurkat
  GI50: 63 ± 8 µM
[3]; ratio of JURKAT value to HDAC8 IC50
  times less active against JURKAT cells than on the isolated HDAC8 enzyme: more than 5700

## N=C1Sc2ccccc2C2=NCCN12 [Compound 13b, 2H-Benzo[e]Imidazo[1,2-c][1,3]Thiazin-5(3H)-Imine]
[1]; Homo sapiens, SK-UT-1
  GI50: 343 ± 191 µM
HDAC7; IC50 HDAC7, Table 1
  IC50: 1.3 ± 0.7 µM
HDAC2; Table 1
  IC50: > 50 µM
HDAC1; IC50 HDAC1, Table 1
  IC50: > 50 µM
HDAC5
  IC50: > 50 µM
HDAC6; Table 1, read-out: IC50 HDAC6
  IC50: > 50 µM
[2]; Homo sapiens, MCF7
  GI50: 213 ± 50 µM
HDAC8; IC50 HDAC8, Table 1
  IC50: 4.4 ± 0.8 µM
HDAC4
  IC50: > 50 µM
HDAC3
  IC50: > 50 µM
[3]; Homo sapiens, Jurkat
  GI50: 558 ± 342 µM

## N=C1Sc2ccc(Cl)cc2C2=NCCN12 [Compound 13c, 9-Chloro-2H-Benzo[e]Imidazo[1,2-c][1,3]Thiazin-5(3H)-Imine]
[1]; Homo sapiens, SK-UT-1
  GI50: 64 ± 7 µM
HDAC7; IC50 HDAC7, Table 1
  IC50: 0.5 ± 0.2 µM
HDAC7; [4]
  IC50: 0.51 µM
HDAC2; Table 1
  IC50: > 50 µM
HDAC1; IC50 HDAC1, Table 1
  IC50: 21 ± 1 µM
HDAC1; [5]
  IC50: 20 µM
HDAC5
  IC50: 13 µM
HDAC6; Table 1, read-out: IC50 HDAC6
  IC50: 32 ± 18 µM
[2]; Homo sapiens, MCF7
  GI50: 60 ± 6 µM
HDAC8; IC50 HDAC8, Table 1
  IC50: 0.18 ± 0.02 µM
HDAC8; [6]
  IC50: 0.2 µM
HDAC4
  IC50: > 50 µM
HDAC3
  IC50: > 50 µM
[3]; Homo sapiens, Jurkat
  GI50: 67 ± 8 µM

## CN(C)c1ccc2c(c1)SC(=N)N1CCCN=C21 [Compound 13d, 6-Imino-N,N-Dimethyl-2,3,4,6-Tetrahydrobenzo[e]Pyrimido[1,2-c][1,3]Thiazin-9-Imine]
[1]; Homo sapiens, SK-UT-1
  GI50: 106 ± 21 µM
HDAC7; IC50 HDAC7, Table 1
  IC50: 2 ± 0.5 µM
HDAC7; [4]
  IC50: 2.1 µM
HDAC2; Table 1
  IC50: > 50 µM
HDAC1; [5]
  IC50: 34 µM
HDAC5
  IC50: 12 µM
HDAC6; Table 1, read-out: IC50 HDAC6
  IC50: 14 ± 1 µM
[2]; Homo sapiens, MCF7
  GI50: 200 ± 58 µM
HDAC8; IC50 HDAC8, Table 1
  IC50: 0.072 ± 0.003 µM
HDAC8; [6]
  IC50: 0.071 µM
HDAC4
  IC50: > 50 µM
HDAC3
  IC50: > 50 µM
[3]; Homo sapiens, Jurkat
  GI50: 153 ± 28 µM

## N=C1Sc2ccc(Cl)cc2C2=NCCCN12 [Compound 13e, 10-Chloro-3,4-Dihydrobenzo[e]Pyrimido[1,2-c][1,3]Thiazin-6(2H)-Imine]
[1]; Homo sapiens, SK-UT-1
  GI50: > 1000 µM
HDAC7; [4]
  IC50: 0.08 µM
HDAC2; Table 1
  IC50: > 50 µM
HDAC1; [5]
  IC50: 7.9 µM
HDAC5
  IC50: 1 µM
HDAC6; Table 1, read-out: IC50 HDAC6
  IC50: 1.2 ± 0.4 µM
[2]; Homo sapiens, MCF7
  GI50: > 1000 µM
HDAC8; IC50 HDAC8, Table 1
  IC50: 0.0059 ± 0.0003 µM
HDAC8; [6]
  IC50: 0.0055 µM
HDAC4
  IC50: 5.7 ± 0.3 µM
HDAC3
  IC50: 20 ± 1 µM
[3]; Homo sapiens, Jurkat
  GI50: 56 ± 9 µM

## N=C1Sc2cc(F)ccc2C2=NCCCN12 [Compound 13f, 9-Fluoro-3,4-Dihydrobenzo[e]Pyrimido[1,2-c][1,3]Thiazin-6(2H)-Imine]
[1]; Homo sapiens, SK-UT-1
  GI50: 147 ± 73 µM
HDAC7; IC50 HDAC7, Table 1
  IC50: 2.6 ± 0.4 µM
HDAC2; Table 1
  IC50: > 50 µM
HDAC1; IC50 HDAC1, Table 1
  IC50: 2.9 ± 0.3 µM
HDAC5
  IC50: 0.17 ± 0.02 µM
HDAC6; Table 1, read-out: IC50 HDAC6
  IC50: 9 ± 4 µM
[2]; Homo sapiens, MCF7
  GI50: > 1000 µM
HDAC8; IC50 HDAC8, Table 1
  IC50: 0.0041 ± 0.0002 µM
HDAC4
  IC50: 2.84 ± 0.13 µM
HDAC3
  IC50: 10 ± 0.56 µM
[3]; Homo sapiens, Jurkat
  GI50: 33 ± 3 µM

## N=C1Sc2ccccc2C2=NCCCN12 [Compound P2742, 6H-6-Imino-(2,3,4,5-tetrahydropyrimido)[1,2-c]-[1,3]benzothiazine, reference compound]
HDAC7
  IC50: 0.24 µM
HDAC1; [5]
  IC50: 3 µM
HDAC5; read-out: IC50 for HDAC5, FIG. 3, 20 μM Boc-Lys(TFA)-AMC
  IC50: 0.11 µM
